Laboratory results from patent US20060046993A1, “Crystalline polymorphic form of irinotecan hydrochloride” (Pharmacia Italia S.p.A., priority 2004, published 2006).
Counter-ions that a name gives are not always drawn.

Assay: Solubility determination of irinotecan hydrochloride Form c in comparison with Form b (excess solid shaken at room temperature, HPLC assay)
Type: physicochemical

CCc1c2c(nc3ccc(OC(=O)N4CCC(N5CCCCC5)CC4)cc13)-c1cc3c(c(=O)n1C2)COC(=O)[C@]3(O)CC [Form b, (S)-4,11-Diethyl-3,4,12,14-tetrahydro-4-hydroxy-3,14-dioxo-1H-pyrano[3′,4′:6,7]-indolizino[1,2-b]quinolin-9-yl[1,4′-bipiperidine]-1-carboxylate hydrochloride]
Irinotecan hydrochloride concentration (a = deionized water, 15 MIN): 11.03 mg/mL | Irinotecan hydrochloride concentration (a = deionized water, 30 MIN): 12.10 mg/mL | Irinotecan hydrochloride concentration (a = deionized water, 60 MIN): 12.12 mg/mL | Irinotecan hydrochloride concentration (a = deionized water, 120 MIN): 11.80 mg/mL | Irinotecan hydrochloride concentration (b = pH 1.2 buffer, 15 MIN): 0.45 mg/mL | Irinotecan hydrochloride concentration (b = pH 1.2 buffer, 30 MIN): 0.42 mg/mL | Irinotecan hydrochloride concentration (b = pH 1.2 buffer, 60 MIN): 0.44 mg/mL | Irinotecan hydrochloride concentration (b = pH 1.2 buffer, 120 MIN): 0.40 mg/mL | Irinotecan hydrochloride concentration (c = lactic acid pH 3.5, 15 MIN): 10.27 mg/mL | Irinotecan hydrochloride concentration (c = lactic acid pH 3.5, 24 HOURS): 11.06 mg/mL | Irinotecan hydrochloride concentration (c = lactic acid pH 3.5, 30 MIN): 10.38 mg/mL | Irinotecan hydrochloride concentration (c = lactic acid pH 3.5, 60 MIN): 10.17 mg/mL | Irinotecan hydrochloride concentration (c = lactic acid pH 3.5, 120 MIN): 11.13 mg/mL
